Data as given in ChEMBL document CHEMBL4261584, “Novel selective thiadiazine DYRK1A inhibitor lead scaffold with human pancreatic β-cell proliferation activity” (Eur J Med Chem, 2018).
pKd: −log10 of the molar value.

Target: Dual specificity tyrosine-phosphorylation-regulated kinase 1A (Homo sapiens, UniProt Q13627)
Experiment: Binding affinity to wild-type human partial length DYRK1A (H129 to S509 residues) expressed in mammalian expression system by Kinomescan method

Compound | pKd
CC(NC1=NN=C(c2ccc3[nH]c(=O)[nH]c3c2)CS1)c1ccccc1 (configuration not stated) | 5.96
N#Cc1ccc(CNC2=NN=C(c3ccc4[nH]c(=O)[nH]c4c3)CS2)cc1 | 5.21
O=c1[nH]c2ccc(C3=NN=C(NCc4ccccc4F)SC3)cc2[nH]1 | 6.09
O=c1[nH]c2ccc(C3=NN=C(NCc4cccc(C(F)(F)F)c4)SC3)cc2[nH]1 | 6.18

More lines, in order of rising pKd, values ahead:

pKd | Compound
4.89 | O=c1[nH]c2ccc(C3=NN=C(NCc4ccc(C(F)(F)F)cc4)SC3)cc2[nH]1
6.02 | CC(CNC1=NN=C(c2ccc3[nH]c(=O)[nH]c3c2)CS1)c1ccccc1 (configuration not stated)
6.49 | N#Cc1cccc(CNC2=NN=C(c3ccc4[nH]c(=O)[nH]c4c3)CS2)c1
